Test results taken from ChEMBL document CHEMBL1149520, “Cyclopentane-based human NK1 antagonists. Part 1: discovery and initial SAR” (Bioorg Med Chem Lett, 2006).
Converted amounts (≈) assume the structure as drawn.

Tests used:
Substance-P receptor = Substance-P receptor (Homo sapiens, UniProt P25103); experiment: biochemical
physchem = conditions: sodium acetate/acetic acid buffer, pH 5
[1] = Solubility in potassium hydrogen phosphate buffer at pH 5; type: physicochemical
[2] = Dissociation constant, pKa of the compound; type: physicochemical
Cavia porcellus = species on record: Cavia porcellus; experiment: animal or person; conditions: Plasma, po, read-out: Inhibition
[3] = Bioavailability in orally dosed dog; type: ADME, organism-based, Canis lupus familiaris; conditions: in vivo, po
[4] = Bioavailability in orally dosed rat; type: ADME, organism-based; conditions: in vivo, po

Substance-P receptor, sequence (P25103 whole entry): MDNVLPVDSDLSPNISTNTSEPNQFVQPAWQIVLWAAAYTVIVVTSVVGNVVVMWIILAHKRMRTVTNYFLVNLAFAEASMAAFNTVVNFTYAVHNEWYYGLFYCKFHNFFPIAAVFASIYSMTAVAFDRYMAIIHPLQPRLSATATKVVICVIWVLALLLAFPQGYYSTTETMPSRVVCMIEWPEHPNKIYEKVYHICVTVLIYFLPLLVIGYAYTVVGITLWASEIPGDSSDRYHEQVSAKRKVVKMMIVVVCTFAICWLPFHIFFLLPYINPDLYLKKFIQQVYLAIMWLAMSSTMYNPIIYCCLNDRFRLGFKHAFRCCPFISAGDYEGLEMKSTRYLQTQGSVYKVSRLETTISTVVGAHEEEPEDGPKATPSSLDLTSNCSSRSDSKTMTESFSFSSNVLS

SMILES	IC50 (Substance-P receptor)	further results
CN(C[C@@H]1CCC(=O)N1)[C@@H]1CC[C@H](OCc2cc(C(F)(F)F)cc(C(F)(F)F)c2)[C@H]1c1ccccc1	0.81 nM	solubility (physchem): 510 µg/mL (≈ 991 µM)
O=C1CC[C@@H](CN[C@@H]2CC[C@H](OCc3cc(C(F)(F)F)cc(C(F)(F)F)c3)[C@H]2c2ccccc2)N1	1.5 nM	solubility (physchem): 4000 µg/mL (≈ 7990 µM)
O=c1[nH]nc(CN2CCO[C@H](OCc3cc(C(F)(F)F)cc(C(F)(F)F)c3)[C@@H]2c2ccccc2)[nH]1	–	solubility [1]: 3 µg/mL (≈ 5.97 µM); pKa [2]: < 3.5
CNC[C@@H]1CC[C@H](OCc2cc(C(F)(F)F)cc(C(F)(F)F)c2)[C@H]1c1ccccc1 (racemic)	1.9 nM	–
NC(=O)CNC[C@@H]1CC[C@H](OCc2cc(C(F)(F)F)cc(C(F)(F)F)c2)[C@H]1c1ccccc1 (racemic)	1.9 nM	solubility (physchem): 590 µg/mL (≈ 1240 µM)
NC[C@@H]1CC[C@H](OCc2cc(C(F)(F)F)cc(C(F)(F)F)c2)[C@H]1c1ccccc1 (racemic)	2.7 nM	–
O=C(N[C@H]1CC[C@H](OCc2cc(C(F)(F)F)cc(C(F)(F)F)c2)[C@@H]1c1ccccc1)OCc1ccccc1 (racemic)	300 nM	–
NC(=O)CN[C@@H]1CC[C@H](OCc2cc(C(F)(F)F)cc(C(F)(F)F)c2)[C@H]1c1ccccc1 (racemic)	1.3 nM	inhibition in vivo at 1 mg/kg (Cavia porcellus): 60%; pKa [2]: 6.6; solubility (physchem): 1100 µg/mL (≈ 2390 µM)
FC(F)(F)c1cc(CO[C@H]2CC[C@@H](CN3CCOCC3)[C@@H]2c2ccccc2)cc(C(F)(F)F)c1 (racemic)	8.2 nM	–
COC(=O)N[C@@H]1CC[C@H](OCc2cc(C(F)(F)F)cc(C(F)(F)F)c2)[C@H]1c1ccccc1 (racemic)	0.89 nM	inhibition in vivo at 1 mg/kg (Cavia porcellus): < 25%
NC(=O)CN[C@H]1CC[C@H](OCc2cc(C(F)(F)F)cc(C(F)(F)F)c2)[C@@H]1c1ccccc1 (racemic)	8.3 nM	solubility (physchem): 800 µg/mL (≈ 1740 µM)
O=c1[nH]cc(CN[C@@H]2CC[C@H](OCc3cc(C(F)(F)F)cc(C(F)(F)F)c3)[C@H]2c2ccccc2)[nH]1 (racemic)	5.2 nM	–
CN(C)C(=O)N[C@@H]1CC[C@H](OCc2cc(C(F)(F)F)cc(C(F)(F)F)c2)[C@H]1c1ccccc1 (racemic)	5 nM	–
O=C(O)[C@@H]1CC[C@H](OCc2cc(C(F)(F)F)cc(C(F)(F)F)c2)[C@H]1c1ccccc1 (racemic)	67 nM	–
NC(=O)N[C@H]1CC[C@H](OCc2cc(C(F)(F)F)cc(C(F)(F)F)c2)[C@@H]1c1ccccc1 (racemic)	9.8 nM	–
CN(CC(N)=O)[C@@H]1CC[C@H](OCc2cc(C(F)(F)F)cc(C(F)(F)F)c2)[C@H]1c1ccccc1 (racemic)	2.7 nM	pKa [2]: 5.8; solubility (physchem): 16 µg/mL (≈ 33.7 µM)
O=C(N[C@@H]1CC[C@H](OCc2cc(C(F)(F)F)cc(C(F)(F)F)c2)[C@H]1c1ccccc1)OCc1ccccc1 (racemic)	40 nM	–
NC(=O)N[C@@H]1CC[C@H](OCc2cc(C(F)(F)F)cc(C(F)(F)F)c2)[C@H]1c1ccccc1 (racemic)	3.5 nM	–
CN[C@H]1CC[C@H](OCc2cc(C(F)(F)F)cc(C(F)(F)F)c2)[C@@H]1c1ccccc1 (racemic)	7.2 nM	–
NC(=O)CN[C@@H]1CC[C@H](OCc2cc(C(F)(F)F)cc(C(F)(F)F)c2)[C@H]1c1ccccc1 (relative stereo)	0.95 nM	–
NC(=O)CN[C@H]1CC[C@@H](OCc2cc(C(F)(F)F)cc(C(F)(F)F)c2)[C@@H]1c1ccccc1 (relative stereo)	45 nM	–
N[C@@H]1CC[C@H](OCc2cc(C(F)(F)F)cc(C(F)(F)F)c2)[C@H]1c1ccccc1 (relative stereo)	2.3 nM	–
C[C@@H](O[C@H]1OCCN(Cc2n[nH]c(=O)[nH]2)[C@H]1c1ccc(F)cc1)c1cc(C(F)(F)F)cc(C(F)(F)F)c1 [APREPITANT]	–	solubility [1]: < 0.5 µg/mL; bioavailability [3]: 40%; bioavailability [4]: 53%; pKa [2]: < 3.5

Second part, led by results:

IC50 (Substance-P receptor)	SMILES	further results
260 nM	O=C1CC[C@@H](CN[C@H]2CC[C@@H](OCc3cc(C(F)(F)F)cc(C(F)(F)F)c3)[C@@H]2c2ccccc2)N1	–
2 nM	CN(Cc1n[nH]c(=O)[nH]1)C[C@@H]1CC[C@H](OCc2cc(C(F)(F)F)cc(C(F)(F)F)c2)[C@H]1c1ccccc1 (racemic)	solubility (physchem): 200 µg/mL (≈ 378 µM)
5.3 nM	COC(=O)N[C@H]1CC[C@H](OCc2cc(C(F)(F)F)cc(C(F)(F)F)c2)[C@@H]1c1ccccc1 (racemic)	–
1.1 nM	CN(Cc1nnc[nH]1)[C@@H]1CC[C@H](OCc2cc(C(F)(F)F)cc(C(F)(F)F)c2)[C@H]1c1ccccc1 (racemic)	–
1.9 nM	CN(CC(N)=O)C[C@@H]1CC[C@H](OCc2cc(C(F)(F)F)cc(C(F)(F)F)c2)[C@H]1c1ccccc1 (racemic)	solubility (physchem): 300 µg/mL (≈ 614 µM)
2.7 nM	CNC(=O)N[C@@H]1CC[C@H](OCc2cc(C(F)(F)F)cc(C(F)(F)F)c2)[C@H]1c1ccccc1 (racemic)	–
7.2 nM	NC(=O)[C@@H]1CC[C@H](OCc2cc(C(F)(F)F)cc(C(F)(F)F)c2)[C@H]1c1ccccc1 (racemic)	–
0.77 nM	OC[C@@H]1CC[C@H](OCc2cc(C(F)(F)F)cc(C(F)(F)F)c2)[C@H]1c1ccccc1 (racemic)	–
5 nM	FC(F)(F)c1cc(CO[C@H]2CC[C@@H](CN3CCCCC3)[C@@H]2c2ccccc2)cc(C(F)(F)F)c1 (racemic)	–
4.9 nM	CN(CC[C@@H]1CC[C@H](OCc2cc(C(F)(F)F)cc(C(F)(F)F)c2)[C@H]1c1ccccc1)Cc1n[nH]c(=O)[nH]1 (racemic)	solubility (physchem): 10 µg/mL (≈ 18.4 µM)
6.2 nM	COC(=O)N(C)[C@@H]1CC[C@H](OCc2cc(C(F)(F)F)cc(C(F)(F)F)c2)[C@H]1c1ccccc1 (racemic)	–
4.7 nM	CN(Cc1n[nH]c(=O)[nH]1)C[C@H]1CC[C@H](OCc2cc(C(F)(F)F)cc(C(F)(F)F)c2)[C@@H]1c1ccccc1 (racemic)	solubility (physchem): 80 µg/mL (≈ 151 µM)
2.1 nM	CN(CC(N)=O)[C@H]1CC[C@H](OCc2cc(C(F)(F)F)cc(C(F)(F)F)c2)[C@@H]1c1ccccc1 (racemic)	–
7.9 nM	N[C@H]1CC[C@H](OCc2cc(C(F)(F)F)cc(C(F)(F)F)c2)[C@@H]1c1ccccc1 (racemic)	–
16 nM	CN(C)C(=O)N(C)[C@@H]1CC[C@H](OCc2cc(C(F)(F)F)cc(C(F)(F)F)c2)[C@H]1c1ccccc1 (racemic)	–
0.83 nM	CN[C@@H]1CC[C@H](OCc2cc(C(F)(F)F)cc(C(F)(F)F)c2)[C@H]1c1ccccc1 (racemic)	–
5.7 nM	N[C@@H]1CC[C@H](OCc2cc(C(F)(F)F)cc(C(F)(F)F)c2)[C@H]1c1ccccc1 (racemic)	–
100 nM	N[C@H]1CC[C@@H](OCc2cc(C(F)(F)F)cc(C(F)(F)F)c2)[C@@H]1c1ccccc1 (relative stereo)	–
